Assay results published in patent US11912668B2, “GCN2 and perk kinase inhibitors and methods of use thereof” (Deciphera Pharmaceuticals, LLC, priority 2020, dated 2024).

Experiments:
Assay type in all cases: cell-based
[1] = biological target: PERK oligomers in HEK-293 cells (Homo sapiens (Human), UniProt Q9NZJ5); experiment: Detection of PERK oligomerization using NanoBRET; conditions: read-out: EC50 of stimulation of the formation of PERK oligomers
Experimental: Constructs for BRET were built using the NanoBRET™ Flexi® PPI Starter System (Promega, Madison, WI). The full-length PERK ORF was obtained from Genscript (Piscataway, NJ). HEK-293 cells (catalog #CRL-1573) were obtained from the American Type Culture Collection (ATTC, Manassas, VA). Cells were grown in MEM medium supplemented with 10% heat-inactivated fetal bovine serum (Invitrogen, Carlsbad, CA) and 1% Penicillin/Streptomycin/L-Glutamine at 37° C., 5% CO2, and 95% humidity. For BRET assays, cells were seeded at a density of 40,000 cells/mL in culture medium in 6-well plates and allowed to attach and recover. Cells were transfected with C-terminally tagged PERK-NLuc and C-terminally tagged PERK-Halo using Lipofectamine LTX (Thermo, Waltham, MA) and allowed to express proteins overnight at 37° C., 5% CO2, and 95% humidity. Cells were then detached from culture dishes using 0.05% trypsin-EDTA, collected, and diluted in assay medium consisting of Opti-MEM® I Reduced Serum Medium supplemented with 4% FBS (Thermo) to 22,000 cells/mL. Cells were dispensed into 96-well cell culture plates and HaloTag® NanoBRET™ 618 Ligand (Promega) was added to a final concentration of 100 nM. […] Donor ([…]) and acceptor (618) emissions were measured on a Synergy Neo2 Multi-Mode Reader (BioTek, Winooski, VT) within 10 min of substrate addition. […]

[2] = system: phospho-GCN2 (Thr899) in HCT116 colorectal cancer cells; experiment: HCT116 amino acid starved (-AA) phospho-GCN2 assay (Western blot); conditions: Homo sapiens, HCT-116, 4 h, read-out: HCT116-AA pGCN2 Western Blot
Summary of the method: (§1)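 HCT116 cells switched to amino-acid-free EBSS (10% dialyzed FBS, 5.5 mM glucose, vitamins) with serial compound dilutions for 4 h at 37° C. Lysates Western blotted for phospho-GCN2 (Thr899), total GCN2, ATF4 and beta-actin; IC50 values derived from quantified bands.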

[3] = system: ATF4 in HCT116 colorectal cancer cells; experiment: HCT116 amino acid starved (-AA) ATF4 assay (Western blot); conditions: Homo sapiens, HCT-116, 4 h
Summary of the method: as §1

[4] = system: ATF4 in CCRF-CEM leukemia cells (PERK); experiment: CCRF-CEM TG ATF4 ELISA, phenotypic assay for cellular inhibition of PERK preactivated by thapsigargin; conditions: Homo sapiens; Thapsigargin (1 μM) stimulated CCRF-CEM cells
[5] = system: CCRF-CEM leukemia cells; experiment: CCRF-CEM ASNase cell proliferation assay, phenotypic assay for cellular inhibition of GCN2; conditions: Homo sapiens; ASNase treated CCRF-CEM cells, 1 mU/mL ASNase, 72 h
Summary of the method: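 Cells were seeded at ten thousand per well in RPMI-1640 with 10% heat-inactivated FBS and treated in triplicate with serially diluted compound plus 1 mU/mL ASNase for 72 h at 37 °C, 5% CO2. Resazurin was then added for 6 h, with fluorescence read at ex 540/em 600 nm to derive IC50 values.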

Sequence of PERK oligomers in HEK-293 cells (Q9NZJ5 30-1116): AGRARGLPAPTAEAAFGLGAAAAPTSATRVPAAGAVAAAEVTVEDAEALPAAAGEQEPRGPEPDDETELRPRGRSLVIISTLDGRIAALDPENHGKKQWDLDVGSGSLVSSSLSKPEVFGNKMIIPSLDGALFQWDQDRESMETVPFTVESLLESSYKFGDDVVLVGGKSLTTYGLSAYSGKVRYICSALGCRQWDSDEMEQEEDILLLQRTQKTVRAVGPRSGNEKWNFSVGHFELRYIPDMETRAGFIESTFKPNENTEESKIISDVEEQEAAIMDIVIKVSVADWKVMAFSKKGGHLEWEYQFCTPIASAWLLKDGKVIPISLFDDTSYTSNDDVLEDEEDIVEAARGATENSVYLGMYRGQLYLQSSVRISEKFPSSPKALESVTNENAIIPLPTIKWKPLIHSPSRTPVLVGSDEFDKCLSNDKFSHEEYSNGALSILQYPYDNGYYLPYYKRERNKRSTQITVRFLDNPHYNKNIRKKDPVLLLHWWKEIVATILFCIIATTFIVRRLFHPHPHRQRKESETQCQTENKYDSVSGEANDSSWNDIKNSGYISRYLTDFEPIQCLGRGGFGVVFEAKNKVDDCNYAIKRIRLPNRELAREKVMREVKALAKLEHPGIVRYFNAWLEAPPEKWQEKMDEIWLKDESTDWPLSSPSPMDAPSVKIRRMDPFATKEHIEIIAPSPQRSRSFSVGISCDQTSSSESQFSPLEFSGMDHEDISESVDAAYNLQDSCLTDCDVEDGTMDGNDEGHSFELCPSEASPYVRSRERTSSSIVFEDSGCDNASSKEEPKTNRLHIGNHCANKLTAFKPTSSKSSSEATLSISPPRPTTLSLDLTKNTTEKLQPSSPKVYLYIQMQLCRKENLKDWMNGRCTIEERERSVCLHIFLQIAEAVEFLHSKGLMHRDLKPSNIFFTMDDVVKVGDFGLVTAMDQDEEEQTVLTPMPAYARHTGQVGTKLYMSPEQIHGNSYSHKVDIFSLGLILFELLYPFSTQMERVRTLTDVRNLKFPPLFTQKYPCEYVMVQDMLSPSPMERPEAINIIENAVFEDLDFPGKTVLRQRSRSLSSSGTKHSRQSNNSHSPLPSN
Sequence of PERK oligomers in HEK-293 cells (Q9NZJ5 30-1116): as above

## CNc1ncc2cc(-c3cccc(NS(=O)(=O)c4cc(Cl)cnc4OC)c3F)c(NC)nc2n1 [Compound 16]
[1]
  EC50: 270 nM
[2]
  IC50: ≤ 100 nM
[3]
  IC50: ≤ 100 nM
[4]
  IC50: 1000 to 10000 nM
[5]
  IC50: ≤ 100 nM
